Reference: paper PMC9120017, “Inhibition mechanism of the chloride channel TMEM16A by the pore blocker 1PBC” (Nature Communications, 2022)
Like-named read-outs stand apart in the source and are kept apart here.

Target: T1, mouse TMEM16A mutant R515A (Mus musculus, UniProt Q8BHY3, R515A)
T1 construct: expressed in transfected cells; host or cells: HEK293T
T1 sequence (Q8BHY3 1-960 R515A): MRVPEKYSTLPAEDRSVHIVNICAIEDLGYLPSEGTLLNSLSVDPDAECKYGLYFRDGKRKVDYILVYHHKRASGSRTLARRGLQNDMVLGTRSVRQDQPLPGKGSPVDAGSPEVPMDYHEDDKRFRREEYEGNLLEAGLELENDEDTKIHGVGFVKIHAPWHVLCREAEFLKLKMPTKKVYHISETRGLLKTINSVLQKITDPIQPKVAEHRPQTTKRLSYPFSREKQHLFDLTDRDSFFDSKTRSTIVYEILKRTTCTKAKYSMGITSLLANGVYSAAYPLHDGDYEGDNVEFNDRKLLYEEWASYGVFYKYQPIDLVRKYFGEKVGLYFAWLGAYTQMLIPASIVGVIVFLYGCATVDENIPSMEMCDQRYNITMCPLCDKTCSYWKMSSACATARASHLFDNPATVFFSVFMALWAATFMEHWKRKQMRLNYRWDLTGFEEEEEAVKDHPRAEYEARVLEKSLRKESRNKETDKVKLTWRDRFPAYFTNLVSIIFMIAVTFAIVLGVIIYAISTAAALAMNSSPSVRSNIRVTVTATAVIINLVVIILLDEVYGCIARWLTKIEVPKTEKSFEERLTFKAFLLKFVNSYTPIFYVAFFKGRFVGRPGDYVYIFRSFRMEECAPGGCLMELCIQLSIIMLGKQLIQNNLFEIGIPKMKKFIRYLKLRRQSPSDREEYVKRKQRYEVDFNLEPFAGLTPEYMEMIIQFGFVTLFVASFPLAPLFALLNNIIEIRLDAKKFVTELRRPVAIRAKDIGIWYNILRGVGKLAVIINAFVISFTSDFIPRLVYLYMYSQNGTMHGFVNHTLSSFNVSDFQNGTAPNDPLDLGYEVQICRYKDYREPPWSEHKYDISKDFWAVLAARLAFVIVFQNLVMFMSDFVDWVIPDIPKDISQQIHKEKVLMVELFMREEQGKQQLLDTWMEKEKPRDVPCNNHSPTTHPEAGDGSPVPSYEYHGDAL
Assay: Inside-out patch recording of 1PBC block, mutant R515A
Assay type: cell-based
Protocol: HEK293T cells (ATCC CRL-1573) were maintained in Dulbecco’s modified Eagle’s medium (DMEM; Sigma-Aldrich) supplemented with 10 U ml^−1 penicillin, 0.1 mg ml^−1 streptomycin (Sigma-Aldrich), 2 mM L-glutamine (Sigma-Aldrich), and 10% FBS (Sigma-Aldrich) in a humidified atmosphere containing 5% CO2 at 37 °C. HEK293S GnTI^− cells (ATCC CRL-3022) were maintained in HyClone HyCell TransFx-H medium (GE Healthcare) supplemented with 10 U ml^−1 penicillin, 0.1 mg ml^−1 streptomycin, 4 mM L-glutamine, 0.15% poloxamer 188 (Sigma-Aldrich), and 1% FBS in an atmosphere containing 5% CO2 at 185 rpm at 37 °C. The ac splice variant of mouse TMEM16A (UniProt ID: Q8BHY3), mouse TMEM16B (UniProt ID: Q8CFW1), or mouse TMEM16F (UniProt ID: Q6P9J9) bearing a 3C cleavage site, a Venus YFP, a Myc tag, and a Streptavidin-binding peptide (SBP) downstream of the open reading frame in a modified pcDNA3.1 vector (Invitrogen) were used as described previously[21],[31]. Mutations were introduced using a modified QuikChange method[58] and were verified by sequencing.
HEK293T cells were transfected with 3–4 μg DNA per 6 cm Petri dish using the calcium phosphate co-precipitation method and were used within 24–96 h after transfection. Recordings were performed on inside-out patches excised from HEK293T cells expressing the construct of interest. Patch pipettes were pulled from borosilicate glass capillaries (O.D. 1.5 mm, I.D. 0.86 mm, Sutter Instrument) and were fire-polished with a microforge (Narishige) before use. Pipette resistance was typically 3–8 MΩ when filled with the recording solutions detailed below. Seal resistance was typically 4 GΩ or higher. Voltage-clamp recordings were made using Axopatch 200B, Digidata 1550, and Clampex 10.7 (Molecular Devices). Analog signals were filtered with the in-built 4-pole Bessel filter at 10 kHz and were digitized at 20 kHz. Solution exchange was achieved using a gravity-fed system through a theta glass pipette mounted on an ultra-fast piezo-driven stepper (Siskiyou). […] All recordings were performed at 20 °C.
A symmetrical ionic condition was used throughout. Stock solution with Ca^2+-EGTA contained 150 mM NaCl, 5.99 mM Ca(OH)2, 5 mM EGTA, and 10 mM HEPES at pH 7.40. Stock solution with EGTA contained 150 mM NaCl, 5 mM EGTA, and 10 mM HEPES at pH 7.40. Free Ca^2+ concentrations were adjusted by mixing the stock solutions at the required ratios calculated using the WEBMAXC program (http://web.stanford.edu/~cpatton/webmaxcS.htm). Patch pipettes were filled with the stock solution with Ca^2+-EGTA, which has a free Ca^2+ concentration of 1 mM. 1PBC (ChemBridge) stock was reconstituted in anhydrous DMSO (Sigma-Aldrich) at 100 mM and stored at −20 °C. Working solutions with 1PBC were prepared by serial dilution. Unless otherwise stated, experiments were performed at a saturating Ca^2+ concentration as shown in Supplementary Table 1 and the primary data were corrected for current rundown as described previously[21],[25].
Concentration-response relations, obtained from the ratio of the I-V plots before and after the application of the blocker, were fitted to the Hill equation,1 I/Imax=1/1+IC50/[blocker]^h where I/Imax is the normalized current responses, IC50 defines the concentration at which inhibition is at its half-maximum, and h is the Hill coefficient.

## N#Cc1c(C(F)(F)F)cc(O)n2c1nc1ccccc12 [1PBC]
0 mV, 4 µM Ca2+
  IC50: 120 µM
10 µM 1PBC, +80 mV, saturating Ca2+ (4 µM), read-out: I/Imax
  remaining activity at 10 µM: 91.2%
10 µM 1PBC, -80 mV, saturating Ca2+ (4 µM), read-out: I/Imax
  remaining activity at 10 µM: 93.3%
30 µM 1PBC, +80 mV, saturating Ca2+ (4 µM), read-out: I/Imax
  remaining activity at 30 µM: 74.8%
30 µM 1PBC, -80 mV, saturating Ca2+ (4 µM), read-out: I/Imax
  remaining activity at 30 µM: 86.5%
100 µM 1PBC, +80 mV, saturating Ca2+ (4 µM), read-out: I/Imax
  remaining activity at 100 µM: 47.7%
100 µM 1PBC, -80 mV, saturating Ca2+ (4 µM), read-out: I/Imax
  remaining activity at 100 µM: 61.6%
1PBC 10, 0 mV, read-out: fraction of unblocked current
  remaining activity at 10 µM: 92.5%
1PBC 10, 20 mV, read-out: fraction of unblocked current
  remaining activity at 10 µM: 92.3%
1PBC 10, 40 mV, read-out: fraction of unblocked current
  remaining activity at 10 µM: 92.8%
1PBC 10, 60 mV, read-out: fraction of unblocked current
  remaining activity at 10 µM: 91.6%
1PBC 10, 80 mV, read-out: fraction of unblocked current
  remaining activity at 10 µM: 91.2%
1PBC 10, 100 mV, read-out: fraction of unblocked current
  remaining activity at 10 µM: 93.9%
1PBC 10, 120 mV, read-out: fraction of unblocked current
  remaining activity at 10 µM: 90.5%
1PBC 10, 140 mV, read-out: fraction of unblocked current
  remaining activity at 10 µM: 93.5%
1PBC 10, -20 mV, read-out: fraction of unblocked current
  remaining activity at 10 µM: 92.7%
1PBC 10, -40 mV, read-out: fraction of unblocked current
  remaining activity at 10 µM: 91.8%
1PBC 10, -60 mV, read-out: fraction of unblocked current
  remaining activity at 10 µM: 91.4%
1PBC 10, -80 mV, read-out: fraction of unblocked current
  remaining activity at 10 µM: 93.3%
1PBC 10, -100 mV, read-out: fraction of unblocked current
  remaining activity at 10 µM: 92.8%
1PBC 10, -120 mV, read-out: fraction of unblocked current
  remaining activity at 10 µM: 91.8%
1PBC 10, -140 mV, read-out: fraction of unblocked current
  remaining activity at 10 µM: 93.3%
1PBC 30, 0 mV, read-out: fraction of unblocked current
  remaining activity at 30 µM: 79.3%
1PBC 30, 20 mV, read-out: fraction of unblocked current
  remaining activity at 30 µM: 77.3%
1PBC 30, 40 mV, read-out: fraction of unblocked current
  remaining activity at 30 µM: 75.6%
1PBC 30, 60 mV, read-out: fraction of unblocked current
  remaining activity at 30 µM: 73.2%
1PBC 30, 80 mV, read-out: fraction of unblocked current
  remaining activity at 30 µM: 74.8%
1PBC 30, 100 mV, read-out: fraction of unblocked current
  remaining activity at 30 µM: 73.1%
1PBC 30, 120 mV, read-out: fraction of unblocked current
  remaining activity at 30 µM: 70.9%
1PBC 30, 140 mV, read-out: fraction of unblocked current
  remaining activity at 30 µM: 70%
1PBC 30, -20 mV, read-out: fraction of unblocked current
  remaining activity at 30 µM: 81.4%
1PBC 30, -40 mV, read-out: fraction of unblocked current
  remaining activity at 30 µM: 84%
1PBC 30, -60 mV, read-out: fraction of unblocked current
  remaining activity at 30 µM: 84.5%
1PBC 30, -80 mV, read-out: fraction of unblocked current
  remaining activity at 30 µM: 86.5%
1PBC 30, -100 mV, read-out: fraction of unblocked current
  remaining activity at 30 µM: 87.5%
1PBC 30, -120 mV, read-out: fraction of unblocked current
  remaining activity at 30 µM: 86.9%
1PBC 30, -140 mV, read-out: fraction of unblocked current
  remaining activity at 30 µM: 85.6%
1PBC 100, 0 mV, read-out: fraction of unblocked current
  remaining activity at 100 µM: 55%
1PBC 100, 20 mV, read-out: fraction of unblocked current
  remaining activity at 100 µM: 53.1%
1PBC 100, 40 mV, read-out: fraction of unblocked current
  remaining activity at 100 µM: 51%
1PBC 100, 60 mV, read-out: fraction of unblocked current
  remaining activity at 100 µM: 49.1%
1PBC 100, 80 mV, read-out: fraction of unblocked current
  remaining activity at 100 µM: 47.7%
1PBC 100, 100 mV, read-out: fraction of unblocked current
  remaining activity at 100 µM: 46.8%
1PBC 100, 120 mV, read-out: fraction of unblocked current
  remaining activity at 100 µM: 47.6%
1PBC 100, 140 mV, read-out: fraction of unblocked current
  remaining activity at 100 µM: 48%
1PBC 100, -20 mV, read-out: fraction of unblocked current
  remaining activity at 100 µM: 56.9%
1PBC 100, -40 mV, read-out: fraction of unblocked current
  remaining activity at 100 µM: 59%
1PBC 100, -60 mV, read-out: fraction of unblocked current
  remaining activity at 100 µM: 60.7%
1PBC 100, -80 mV, read-out: fraction of unblocked current
  remaining activity at 100 µM: 61.6%
1PBC 100, -100 mV, read-out: fraction of unblocked current
  remaining activity at 100 µM: 61.8%
1PBC 100, -120 mV, read-out: fraction of unblocked current
  remaining activity at 100 µM: 62.9%
1PBC 100, -140 mV, read-out: fraction of unblocked current
  remaining activity at 100 µM: 62.4%
20 mV, 4 µM Ca2+
  IC50: 110 µM
40 mV, 4 µM Ca2+
  IC50: 102 µM
60 mV, 4 µM Ca2+
  IC50: 92.1 µM
80 mV
  log-fold IC50 (change of mutant vs WT): 1.6299
80 mV, 4 µM Ca2+
  IC50: 91.4 µM
100 mV, 4 µM Ca2+
  IC50: 88.7 µM
120 mV, 4 µM Ca2+
  IC50: 84.4 µM
140 mV, 4 µM Ca2+
  IC50: 86.1 µM
-20 mV, 4 µM Ca2+
  IC50: 131 µM
-40 mV, 4 µM Ca2+
  IC50: 145 µM
-60 mV, 4 µM Ca2+
  IC50: 153 µM
-80 mV, 4 µM Ca2+
  IC50: 166 µM
-100 mV, 4 µM Ca2+
  IC50: 169 µM
-120 mV, 4 µM Ca2+
  IC50: 172 µM
-140 mV, 4 µM Ca2+
  IC50: 168 µM
R515A, V 0 mV
  IC50: 120 µM
R515A, V 20 mV
  IC50: 110 µM
R515A, V 40 mV
  IC50: 102 µM
R515A, V 60 mV
  IC50: 92.1 µM
R515A, V 80 mV
  IC50: 91.4 µM
R515A, V 100 mV
  IC50: 88.7 µM
R515A, V 120 mV
  IC50: 84.4 µM
R515A, V 140 mV
  IC50: 86.1 µM
R515A, V -20 mV
  IC50: 131 µM
R515A, V -40 mV
  IC50: 145 µM
R515A, V -60 mV
  IC50: 153 µM
R515A, V -80 mV
  IC50: 166 µM
R515A, V -100 mV
  IC50: 169 µM
R515A, V -120 mV
  IC50: 172 µM
R515A, V -140 mV
  IC50: 168 µM
